Reference: patent publication US9579328B2, “Prostaglandin and vasoconstrictor pharmaceutical compositions and methods of use” (ALLERGAN, INC., priority 2012, dated 2017)
Read-outs that look alike come from different tables or passages of the source.

Key:
[1] = test system: rabbit isolated jugular veins; assay: Vasorelaxation in histamine-precontracted rabbit isolated jugular veins; format: cell-based
From the text: FIG. 3. Concentration-response curves for (FIG. 3A) bimatoprost and (FIG. 3B) latanoprost free acid in histamine-precontracted endothelium-intact and endothelium-denuded rabbit isolated jugular veins. Results are expressed as mean±S.E.M. of 5-6 animals. FIG. 3A adapted from Chen J et al., Invest Ophthalmol Vis Sci 2004; 45:ARVO E-Abstract 2609; FIG. 3B extends results reported in Chen J et al., Invest Ophthalmol Vis Sci 2004; 45:ARVO E-Abstract 2609; and Pharmacology Review of New Drug Application 21-275. FDA/Center for Drug Evaluation and Research. 2001;Part 1 and Part 2:1-107. Available online at http://www.fda.gov/cder/foi/nda/2001/21275_Lumigan.htm.
FIG. 4. Concentration-response curves for (FIG. 4A) bimatoprost and (FIG. 4B) latanoprost free acid in the presence or absence of indomethacin in endothelium-intact rabbit isolated jugular veins. Results are expressed as mean±S.E.M. of 7 animals and extend previous results reported in Pharmacology Review of New Drug Application 21-275. FDA/Center for Drug Evaluation and Research. 2001;Part 1 and Part 2:1-107. Available online at http://www.fda.gov/cder/foi/nda/2001/21275_Lumigan.htm.
FIG. 5. Concentration-response curves for (FIG. 5A) bimatoprost and (FIG. 5B) latanoprost free acid in the presence of 100 μM L-NAME or 100 (μM D-NAME control in endothelium-intact rabbit isolated jugular veins. Results are expressed as mean±S.E.M. of 6 animals. *P≦0.05, compared to responses in D-NAME pretreated tissues at the same concentration, paired t-test.
The pharmacological mechanism of ocular surface hyperemia elicited by bimatoprost and latanoprost was investigated using the rabbit jugular vein preparation as a quantitative in vitro model (Chen J. et al., Br J Pharmacol 1995; 116:3035-3041). In these studies, tissues were suspended in jacketed organ baths containing Krebs buffer with 1 μM indomethacin (endothelium-intact and -denuded) or in its absence (endothelium-intact) and precontracted with 3 μM histamine. Vasorelaxant and contractile activity were determined as a percentage (%) of the control tone elicited by histamine. Statistical comparisons for the vasorelaxant activity consisted of testing for significance of difference at each of the concentrations tested using the Student'-s t-test for unpaired samples (indomethacin vs no indomethacin) and paired samples (L-NAME vs D-NAME). Differences were considered statistically significant for P-values ≦0.05.
Indomethacin is a cyclooxygenase inhibitor that is routinely used in prostanoid receptor assays (Chen J et al., Current protocols in pharmacology. New York: John Wiley & Sons, Inc., 2001; 4.18.1-4.18.41). Studies of intact and viable isolated tissues, such as the rabbit jejunum (Ferreira S H, Herman A G, Vane J R., Br J Pharmacol 1976; 56:469-477) and human bronchial muscle (Haye-Legrand I, Cerrina J, Raffestin B et al., J Pharmacol Exp Ther 1986; 239:536-541), found the basal output of prostaglandins to be 8-23 pg/mg of tissue at baseline or over 30 min collection periods. In the presence of 1.7 and 2.79 μM indomethacin, the amounts of prostaglandins generated in isolated tissues become negligible (Botting J H, Salzmann R., Br J Pharmacol 1974; 50:119-124; Haye-Legrand I, Cerrina J, Raffestin B et al., J Pharmacol Exp Ther 1986; 239:536-541). The 1 μM concentration of indomethacin in the tissue bath, in our experience, is sufficient to prevent biosynthesis of prostanoids within isolated vascular tissue preparations (Alster P, Wennmalm Å., Eur J Pharmacol 1983; 86:441-446; Chen J et al., Current protocols in pharmacology. New York: John Wiley & Sons, Inc., 2001; 4.18.1-4.18.41). At substantially higher concentrations, indomethacin has been reported to lose selectivity for prostanoid biosynthesis inhibition (Aboulafia J et al., Br J Pharmacol 1976; 58:223-228; Goodfriend T L, Simpson R U., Br J Pharmacol 1981; 72:247-255; Northover B J, Br J Pharmacol 1971; 41:540-551; Sawdy R et al., Br J Pharmacol 1998; 125:1212-1217). […]

[2] = test system: conjunctiva of patients with bilateral open-angle glaucoma or ocular hypertension; settings: bimatoprost 0.03% once daily, cited from earlier work
[3] = test system: bulbar conjunctiva of patients; settings: bimatoprost 0.03% q.d. for 60 days; biopsies at day 7 and impression cytology; cited from earlier work
[4] = test system: human cultured conjunctiva-derived epithelial cells; settings: cited from earlier work
[5] = test system: rabbit isolated jugular veins; settings: cited from earlier work
[6] = test system: eyes of conscious Beagle dogs; settings: bimatoprost 0.1%, latanoprost 0.005%, cited from earlier work
[7] = test system: palpebral conjunctiva of Dutch-Belted (pigmented) rabbits; settings: left eye, Bimatoprost 0.03% b.i.d. one month, n = 19; cited from earlier work
[8] = test system: palpebral conjunctiva of Dutch-Belted (pigmented) rabbits; parameters: key: N = Tissues within normal histological limits; settings: left eye, n = 20, cited from earlier work
[9] = test system: palpebral conjunctiva of Beagle dogs; settings: n = 6 per group, left eye, cited from earlier work
[10] = test system: palpebral conjunctiva of Cynomolgus monkeys; settings: cited from earlier work
[11] = Bimatoprost 0.03% b.i.d. 6 months
[12] = Bimatoprost 0.03% q.d. 6 months
[13] = Bimatoprost 0.1% b.i.d. 6 months
[14] = bimatoprost 0.001% q.i.d. topical ocular for one month
[15] = bimatoprost 0.01% q.i.d. topical ocular for one month
[16] = bimatoprost 0.1% q.i.d. topical ocular for one month

CCNC(=O)CCC/C=C\C[C@@H]1[C@@H](/C=C/[C@@H](O)CCc2ccccc2)[C@H](O)C[C@@H]1O [Bimatoprost, bimatoprost]
vasorelaxant response in presence of 100 μM L-NAME compared to 100 μM D-NAME control ([1]; endothelium-intact histamine precontracted tissues, P≦0.05 paired t-test): significantly inhibited | difference in effects with and without 1 μM indomethacin ([1]; endothelium-intact tissues, each concentration tested): no statistically significant differences | time at which frequency and severity of hyperemia peaked after the first instillation ([2]; 39 patients, slit-lamp biomicroscopy): approximately 1 day | hyperemia returning to near baseline levels ([2]; month-long study): ≤ 28 days | clinical significance of the hyperemia [2]: not clinically significant | evidence of inflammation [3]: no evidence of inflammation | direct stimulation of inflammatory pathways involving adhesion molecules or class II antigens ([4]; in vitro): None of the drugs appeared to induce direct stimulation of inflammatory pathways | toxicity observed ([4]; primarily related to the concentration of benzalkonium chloride): mild | response in the endothelium-denuded preparation ([5]; endothelium-denuded, histamine precontracted, bimatoprost): inactive | EC50 ([5]; endothelium-intact jugular veins, 3 μM histamine precontracted, read-out: vasorelaxant response EC50): 3.98 µM | ocular surface hyperemic response (severity) ([6]; D-NAME treated control eyes, scale 0=none, 0.5=trace, 1=mild, 2=moderate, 3=severe): trace to mild | effect of L-NAME on elicited ocular surface hyperemia ([6]; L-NAME 1% treated eyes, PGE2 0.01%, 0-6 h): blocked | Incidence of mononuclear cell infiltration in palpebral conjunctiva, Lower Eyelid, Minimal/mild [7]: 12 number of animals | Incidence of mononuclear cell infiltration in palpebral conjunctiva, Lower Eyelid, Moderate [7]: 0 number of animals | Incidence of mononuclear cell infiltration in palpebral conjunctiva, Upper Eyelid, Minimal/mild [7]: 6 number of animals | Mononuclear cell infiltration in palpebral conjunctiva, Lower Eyelid [8, 11]: N | Mononuclear cell infiltration in palpebral conjunctiva, Upper Eyelid [8, 11]: N | Mononuclear cell infiltration in palpebral conjunctiva, Lower Eyelid [8, 12]: N | Mononuclear cell infiltration in palpebral conjunctiva, Upper Eyelid [8, 12]: N | Mononuclear cell infiltration in palpebral conjunctiva, Lower Eyelid [8, 13]: N | Mononuclear cell infiltration in palpebral conjunctiva, Upper Eyelid [8, 13]: N | Incidence of minimal-to-mild mononuclear cell infiltration in palpebral conjunctiva (number of animals with histopathologic findings), Lower Eyelid [9, 14]: 3 | Incidence of minimal-to-mild mononuclear cell infiltration in palpebral conjunctiva (number of animals with histopathologic findings), Upper Eyelid [9, 14]: 4 | Incidence of minimal-to-mild mononuclear cell infiltration in palpebral conjunctiva (number of animals with histopathologic findings), Lower Eyelid [9, 15]: 5 | Incidence of minimal-to-mild mononuclear cell infiltration in palpebral conjunctiva (number of animals with histopathologic findings), Upper Eyelid [9, 15]: 3 | Incidence of minimal-to-mild mononuclear cell infiltration in palpebral conjunctiva (number of animals with histopathologic findings), Lower Eyelid [9, 16]: 6 | Incidence of minimal-to-mild mononuclear cell infiltration in palpebral conjunctiva (number of animals with histopathologic findings), Upper Eyelid [9, 16]: 5 | Incidence of inflammation in palpebral conjunctiva (number of animals with histopathologic findings), Upper Eyelid, Chronic active ([10]; n = 6, right eye, bimatoprost 0.03% b.i.d. for 12 months): 5 | Incidence of inflammation in palpebral conjunctiva (number of animals with histopathologic findings), Upper Eyelid, Chronic active ([10]; n = 6, right eye, bimatoprost 0.1% b.i.d. for 12 months): 3 | Incidence of inflammation in palpebral conjunctiva (number of animals with histopathologic findings), Upper Eyelid, Chronic active ([10]; n = 8, right eye, bimatoprost 0.03% q.d. for 12 months): 4
